From US10035980B2, “Extracellular matrix derived from stem cells and methods for production” (FLORIDA STATE UNIVERSITY RESEARCH FOUNDATION, INC., priority 2013, dated 2018)

Key:
Assay type in all cases: cell-based, Murine
ESCs [1] = test: ESC reseeding and proliferation on decellularized ECMs (specific growth rate)
Method: (§1) To assess cell proliferation, ESCs of 0.5×10^5 per mL were seeded on the decelluarized ECMs and cultivated for 4 days in expansion media without LIF (FIG. 1). […] Cell numbers were determined at days 0, 2, and 4 using a hemocytometer after trypsin/EDTA dissociation. The specific growth rates were calculated as the slope of the proliferation curve. Cell viability was determined by the incubation with 5 mg/mL 3-(4,5-Dimethylthiazol-2-yl)-2,5-diphenyltetrazolium bromide (MTT, Sigma) solution. Afterwards, the formazan crystals were hydrolyzed with dimethyl sulfoxide (Sigma) and measured at 500 nm using a microplate reader. For the test of RA signaling, soluble RA (1 μM) or BMS 493 (1 μM, Santa Cruz), a pan-RAR antagonist, was supplemented in the media. To assess the differentiation ability after culturing on the decellularized ECMs, ESCs were replated on 0.1% gelatin-coated 12-well plates and cultured for 7 days in differentiation medium without any inducing growth factors. The cells were evaluated for the expression of Nestin (ectoderm), β-tubulin III (ectoderm), α-actinin (mesoderm), and FOXA2 (endoderm).

ESCs [2] = test: Oct-4 expression of reseeded ESCs by flow cytometry
Method: as §1
For flow cytometry, 1×10^6 cells per sample were fixed with 4% PFA and washed with staining buffer (2% FBS in PBS). […] The cells were acquired with BD FACSCANTO II flow cytometer (Becton Dickinson) and analyzed against isotype controls using FlowJo software.

ESCs [3] = test: Three-germ layer differentiation of ESCs grown on decellularized ECM scaffolds
Method: (§2) To detect differentiation markers, the cells were incubated with mouse or rabbit primary antibody against: Nestin (Millipore), β-tubulin III (Sigma), α-actinin (sarcomeric, Sigma), or FOXA2 (Millipore). After washing, the cells were incubated with the corresponding secondary antibody: ALEXA FLUOR 488 goat anti-Mouse IgG1 (for Nestin and α-actinin) or IgG2b (for β-Tubulin III), or ALEXA FLUOR 488 goat anti-Rabbit IgG (for FOXA2). The localization of RAR-α was also assessed using goat anti-Rabbit RAR-α antibody (Abcam) detected by ALEXA FLUOR 594 donkey anti-Goat IgG.
as §1
For flow cytometry, 1×10^6 cells per sample were fixed with 4% PFA and washed with staining buffer (2% FBS in PBS). The cells were stained with DNA-intercalating dye ethidium monoazide bromide (EMA, Sigma) and permeabilized with 100% cold methanol. The samples were incubated with primary antibodies against Oct-4 (Millipore), Nestin, β-tubulin III, α-actinin, or FOXA2 followed by the corresponding secondary antibody: ALEXA FLUOR 488 goat anti-Mouse IgG1 (for Oct-4, Nestin, and α-actinin) or IgG2b (for β-tubulin III), or ALEXA FLUOR 488 goat anti-Rabbit IgG (for FOXA2). The cells were acquired with BD FACSCANTO II flow cytometer (Becton Dickinson) and analyzed against isotype controls using FlowJo software.

RAR-α = target: T1, RAR-α (Mus musculus, UniProt P11416); test: RAR-α localization in ESCs by immunocytochemistry; details: ESCs on DE-RA10 without soluble RA; ESC monolayers exposed to soluble RA, FIG. 8A
T1 construct: Localization of RAR-α in ESC monolayers with or without RA treatment; endogenous in cells; host or cells: embryonic stem cells (monolayers, or reseeded on DE-RA10 scaffolds)
T1 sequence (P11416 1-462): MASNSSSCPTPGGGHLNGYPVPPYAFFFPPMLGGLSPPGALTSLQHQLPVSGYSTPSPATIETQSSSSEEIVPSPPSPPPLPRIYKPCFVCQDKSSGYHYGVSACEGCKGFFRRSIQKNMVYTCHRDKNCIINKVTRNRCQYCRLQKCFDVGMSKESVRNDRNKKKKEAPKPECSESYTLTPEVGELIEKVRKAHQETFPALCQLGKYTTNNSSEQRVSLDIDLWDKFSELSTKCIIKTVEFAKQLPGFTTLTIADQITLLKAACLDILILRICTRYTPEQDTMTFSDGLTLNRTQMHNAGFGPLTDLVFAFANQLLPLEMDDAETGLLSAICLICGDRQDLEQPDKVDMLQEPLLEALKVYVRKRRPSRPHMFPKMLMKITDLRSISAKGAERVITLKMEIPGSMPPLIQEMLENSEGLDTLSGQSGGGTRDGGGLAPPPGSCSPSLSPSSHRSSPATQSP
Method: as §2
as §1, with “For the test of RA signaling, soluble RA (1 μM) or BMS 493 (1 μM, Santa Cruz), a pan-RAR antagonist, was supplemented in the media. To assess the differentiation ability after culturing on the decellularized ECMs, ESCs were replated on 0.1% gelatin-coated 12-well plates and cultured for 7 days in differentiation medium without any inducing growth factors.” left out

ESC-derived NPCs [4] = test: NPC proliferation assays on ECM scaffolds (fold expansion, MTT); details: NPCs on DE-EC and DE-NG scaffolds, BMS 493 1 μM, FIG. 17A
Method: For various ECM scaffolds, 1×10^6 dissociated NPCs or intact NPC aggregates derived from ESCs were reseeded on the ECM scaffolds and cultivated for 3-4 days in DMEM-F12 containing 2% B27. The cells were analyzed for colonization on the scaffolds, proliferation, and viability. To study the effect of retinoid signaling, BMS 493 (1 μM, Santa Cruz), a pan-retinoic acid receptor (RAR) antagonist, was supplemented in the media for some experiments.
Cell proliferation assays: Cell numbers were determined at days 3 using a hemocytometer after trypsin/EDTA dissociation for fold expansion. Cell proliferation kinetics was also determined by incubating with 5 mg/mL 3-(4,5-Dimethylthiazol-2-yl)-2,5-diphenyltetrazolium bromide (MTT, Sigma) solution. Afterwards, the formazan crystals were hydrolyzed with dimethyl sulfoxide (Sigma) and measured at 500 nm using a microplate reader.

ESC-derived NPCs [5] = test: Neural marker expression of reseeded NPCs by flow cytometry; details: for GFAP expression upon BMS 493 treatment: FIG. 17D
Method: For various ECM scaffolds, 1×10^6 dissociated NPCs or intact NPC aggregates derived from ESCs were reseeded on the ECM scaffolds and cultivated for 3-4 days in DMEM-F12 containing 2% B27. The cells were analyzed for colonization on the scaffolds, proliferation, and viability. To study the effect of retinoid signaling, BMS 493 (1 μM, Santa Cruz), a pan-retinoic acid receptor (RAR) antagonist, was supplemented in the media for some experiments. After 3 days of culture in suspension, the NPC-ECM constructs were replated in 24-well plates coated with Geltrex™, the LDEV-Free Reduced Growth Factor Basement Membrane Matrix (Life Technologies), for another 3 days. The differentiation was assessed by immunocytochemistry for neural markers. […] The samples were then blocked and incubated with mouse or rabbit primary antibody against: Nestin (Sigma) or Musashi-1 (Abcam) for neural progenitors, β-tubulin III (Millipore) for neurons, or GFAP (Millipore) for astrocytes. After washing, the cells were incubated with the corresponding secondary antibody: Alexa Fluor® 488 goat anti-Mouse IgG1 for GFAP and β-tubulin III, or Alexa Fluor® 488 goat anti-Rabbit IgG for Nestin and Musashi-1 (Molecular Probes). The samples were mounted with 4′,6-Diamidino-2-Phenylindole (DAPI) and visualized using a fluorescent microscope. To quantify the levels of neural marker expression, the cells on ECM scaffolds were harvested by trypsinization and analyzed by flow cytometry. Briefly, 1×10^6 cells per sample were fixed with 4% PFA and washed with staining buffer (2% FBS in PBS). […] Alexa Fluor® 488 goat anti-Mouse IgG1 (for GFAP and β-tubulin III) or Alexa Fluor® 488 goat anti-Rabbit IgG (for Nestin and Musashi-1). The cells were acquired with BD FACSCanto™ II flow cytometer (Becton Dickinson) and analyzed against isotype controls using FlowJo software.

[6] = FIG. 8B: cells in DE-RA10 vs cells in DE-SE10 treated with soluble RA (1 μM)
[7] = FIG. 8D: ESCs on DE-RA10 vs ESCs treated by soluble RA
[8] = BMS 493 (1 μM) added in the DE-RA10 culture, FIG. 8C
[9] = BMS 493 treated vs untreated, ESCs on DE-RA10, FIG. 8E
[10] = FIG. 8E: ESCs on DE-RA10 with or without BMS 493 (1 μM)

SMILES	specific growth rate (ESCs [1]; [6]) [h⁻¹]	Oct-4 expression (ESCs [2]; [6]) [%]	Nestin expression (ESCs [3]; [7]) [%]	β-tubulin III expression (ESCs [3]; [7]) [%]	localization of RAR-α (RAR-α)	ESC proliferation (ESCs [1]; [8])	Oct-4 expression (ESCs [2]; [8])	Nestin expression (ESCs [3]; [9])	β-tubulin III expression (ESCs [3]; [9])	expression of FOXA2 (ESCs [3]; [10]) [%]	expression of α-actinin (ESCs [3]; [10]) [%]	cell proliferation after BMS 493 treatment (ESC-derived NPCs [4])	GFAP expression upon BMS 493 treatment (ESC-derived NPCs [5]; DE-EC condition)	neural marker expression upon BMS 493 (ESC-derived NPCs [5]; NPCs, DE-AC group)	Nestin expression upon BMS 493 treatment (ESC-derived NPCs [5]; NPCs, DE-EC and DE-NC conditions, FIG. 17B)	β-Tubulin III expression upon BMS 493 treatment (ESC-derived NPCs [5]; cells from DE-NC scaffold, FIG. 17C)	GFAP expression upon BMS 493 treatment (ESC-derived NPCs [5]; cells from DE-NC scaffold)
CC1=C(/C=C/C(C)=C/C=C/C(C)=C/C(=O)O)C(C)(C)CCC1 [soluble RA, all-trans retinoic acid]	-0.013	10.1	32	25	translocation of RAR-α from cytoplasm to cell nucleus was confirmed												
CC1(C)CC=C(C#Cc2ccccc2)c2cc(/C=C/c3ccc(C(=O)O)cc3)ccc21 [BMS 493]						reduced ESC proliferation	not Oct-4 expression	increased	similar	24	3	reduced the cell proliferation	increased GFAP expression	no changes in neural marker expression	increased	significant decrease	significant decrease
